Assays:
Test in all cases: viability relative to DMSO control (fraction); higher = less drug effect (more viable cells)
Conditions in all cases: 48 h
[1] = test system: primary ALL patient cells (S088)
Outline: (§1)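 Viability was measured as CellTiter-Glo luminescence relative to the median of 16 inner DMSO wells. Primary mononuclear tumour cells, fresh or cryopreserved, were Ficoll-isolated from blood or bone marrow or taken from processed lymph node. They were seeded at 4 × 10^4 cells per well into 384-well plates holding pre-plated compounds at five concentrations, one well each, and kept in RPMI-1640 with penicillin/streptomycin, L-glutamine and human serum at 37 °C and 5% CO2 for 48 h.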

[2] = test system: primary AML patient cells (S072)
Outline: as §1

[3] = test system: primary AML patient cells (S056)
Outline: as §1

[4] = test system: primary CLL patient cells (S043)
Outline: as §1

[5] = test system: primary AML patient cells (S071)
Outline: as §1

[6] = test system: primary AML patient cells (S006)
Outline: as §1

[7] = test system: primary AML patient cells (S060)
Outline: as §1

[8] = test system: primary AML patient cells (S007)
Outline: as §1

[9] = test system: primary AML patient cells (S055)
Outline: as §1

[10] = test system: primary AML patient cells (S079)
Outline: as §1

[11] = test system: primary ALL patient cells (S048)
Outline: as §1

[12] = test system: primary AML patient cells (S089)
Outline: as §1

[13] = test system: primary DLBCL patient cells (S049)
Outline: as §1

[14] = test system: primary CLL patient cells (S031)
Outline: as §1

[15] = test system: primary DLBCL patient cells (S082)
Outline: as §1

[16] = test system: primary T-NHL patient cells (S058)
Outline: as §1

[17] = test system: primary MCL patient cells (S063)
Outline: as §1

[18] = test system: primary DLBCL patient cells (S076)
Outline: as §1

[19] = test system: primary AML patient cells (S027)
Outline: as §1

`Nc1cccc2c1CN(C1CCC(=O)NC1=O)C2=O` (stereo not given) [Lenalidomide] gave a viability ([1]; 0.008 µM) of 1.07, a viability ([1]; 0.04 µM) of 1.05 and a viability ([1]; 0.2 µM) of 0.976. The viability ([1]; 1 µM) was 0.933, the viability ([1]; 5 µM) was 0.904 and the viability ([2]; 0.008 µM) was 1.12. For the same molecule, the viability ([2]; 0.04 µM) was 1.14, the viability ([2]; 0.2 µM) was 1.1 and the viability ([2]; 1 µM) was 1.13. It also gave a viability ([2]; 5 µM) of 1.15, a viability ([3]; 0.008 µM) of 1.04 and a viability ([3]; 0.04 µM) of 1.24. It also gave a viability ([3]; 0.2 µM) of 0.961, a viability ([3]; 1 µM) of 0.98 and a viability ([3]; 5 µM) of 0.84. The viability ([4]; 0.008 µM) was 1.1, the viability ([4]; 0.04 µM) was 1.07 and the viability ([4]; 0.2 µM) was 1.08. For the same molecule, the viability ([4]; 1 µM) was 1.05, the viability ([4]; 5 µM) was 1.05 and the viability ([5]; 0.008 µM) was 0.864. The viability ([5]; 0.04 µM) was 0.563, the viability ([5]; 0.2 µM) was 0.386 and the viability ([5]; 1 µM) was 0.321. For the same molecule, the viability ([5]; 5 µM) was 0.295, the viability ([6]; 0.008 µM) was 0.847 and the viability ([6]; 0.04 µM) was 0.602. The viability ([6]; 0.2 µM) was 0.463, the viability ([6]; 1 µM) was 0.633 and the viability ([6]; 5 µM) was 0.372. For the same molecule, the viability ([7]; 0.008 µM) was 1.02, the viability ([7]; 0.04 µM) was 0.973 and the viability ([7]; 0.2 µM) was 0.992. For the same molecule, the viability ([7]; 1 µM) was 1, the viability ([7]; 5 µM) was 1.01 and the viability ([8]; 0.008 µM) was 0.801. The viability ([8]; 0.04 µM) was 0.386, the viability ([8]; 0.2 µM) was 0.204 and the viability ([8]; 1 µM) was 0.188. For the same molecule, the viability ([8]; 5 µM) was 0.152, the viability ([9]; 0.008 µM) was 1.01 and the viability ([9]; 0.04 µM) was 0.945. The viability ([9]; 0.2 µM) was 0.916, the viability ([9]; 1 µM) was 0.943 and the viability ([9]; 5 µM) was 0.928. For the same molecule, the viability ([10]; 0.008 µM) was 1.02, the viability ([10]; 0.04 µM) was 1.02 and the viability ([10]; 0.2 µM) was 1.08. The viability ([10]; 1 µM) was 1.08, the viability ([10]; 5 µM) was 1.08 and the viability ([11]; 0.008 µM) was 0.895. The viability ([11]; 0.04 µM) was 0.751, the viability ([11]; 0.2 µM) was 0.609 and the viability ([11]; 1 µM) was 0.548. The viability ([11]; 5 µM) was 0.488, the viability ([12]; 0.008 µM) was 0.916 and the viability ([12]; 0.04 µM) was 0.727. For the same molecule, the viability ([12]; 0.2 µM) was 0.724, the viability ([12]; 1 µM) was 0.559 and the viability ([12]; 5 µM) was 0.737. It also gave a viability ([13]; 0.008 µM) of 0.962, a viability ([13]; 0.04 µM) of 1.09 and a viability ([13]; 0.2 µM) of 0.905. It also gave a viability ([13]; 1 µM) of 0.943, a viability ([13]; 5 µM) of 0.974 and a viability ([14]; 0.008 µM) of 1.09. The viability ([14]; 0.04 µM) was 1.08, the viability ([14]; 0.2 µM) was 1.08 and the viability ([14]; 1 µM) was 1.04. It also gave a viability ([14]; 5 µM) of 1.01, a viability ([15]; 0.008 µM) of 1.1 and a viability ([15]; 0.04 µM) of 1.07. It also gave a viability ([15]; 0.2 µM) of 1.08, a viability ([15]; 1 µM) of 1.14 and a viability ([15]; 5 µM) of 1.1. The viability ([16]; 0.008 µM) was 0.915, the viability ([16]; 0.04 µM) was 1.17 and the viability ([16]; 0.2 µM) was 0.862. For the same molecule, the viability ([16]; 1 µM) was 1.14, the viability ([16]; 5 µM) was 0.91 and the viability ([17]; 0.008 µM) was 1.14. For the same molecule, the viability ([17]; 0.04 µM) was 1.09, the viability ([17]; 0.2 µM) was 1.08 and the viability ([17]; 1 µM) was 1.11. It also gave a viability ([17]; 5 µM) of 1.11, a viability ([18]; 0.008 µM) of 0.847 and a viability ([18]; 0.04 µM) of 1.11. The viability ([18]; 0.2 µM) was 0.749, the viability ([18]; 1 µM) was 0.992 and the viability ([18]; 5 µM) was 1.06.
Work on `Cc1sc2c(c1C)C(c1ccc(Cl)cc1)=N[C@@H](CC(=O)Nc1ccc(O)cc1)c1nnc(C)n1-2` [OTX015] yielded a viability ([1]; 0.016 µM) of 0.862, a viability ([1]; 0.08 µM) of 0.726 and a viability ([1]; 0.4 µM) of 0.448. For the same molecule, the viability ([1]; 2 µM) was 0.394, the viability ([1]; 10 µM) was 0.325 and the viability ([2]; 0.016 µM) was 0.806. The viability ([2]; 0.08 µM) was 0.826, the viability ([2]; 0.4 µM) was 0.604 and the viability ([2]; 2 µM) was 0.375. The viability ([2]; 10 µM) was 0.364, the viability ([3]; 0.016 µM) was 0.932 and the viability ([3]; 0.08 µM) was 0.885. For the same molecule, the viability ([3]; 0.4 µM) was 0.631, the viability ([3]; 2 µM) was 0.255 and the viability ([3]; 10 µM) was 0.235. It also gave a viability ([4]; 0.016 µM) of 0.959, a viability ([4]; 0.08 µM) of 0.963 and a viability ([4]; 0.4 µM) of 0.9. For the same molecule, the viability ([4]; 2 µM) was 0.76, the viability ([4]; 10 µM) was 0.762 and the viability ([5]; 0.016 µM) was 0.988. For the same molecule, the viability ([5]; 0.08 µM) was 1.08, the viability ([5]; 0.4 µM) was 0.994 and the viability ([5]; 2 µM) was 0.829. It also gave a viability ([5]; 10 µM) of 0.722, a viability ([7]; 0.016 µM) of 1.01 and a viability ([7]; 0.08 µM) of 1.03. The viability ([7]; 0.4 µM) was 0.775, the viability ([7]; 2 µM) was 0.501 and the viability ([7]; 10 µM) was 0.344. The viability ([8]; 0.016 µM) was 1.16, the viability ([8]; 0.08 µM) was 1.08 and the viability ([8]; 0.4 µM) was 0.561. The viability ([8]; 2 µM) was 0.335, the viability ([8]; 10 µM) was 0.24 and the viability ([10]; 0.016 µM) was 0.812. For the same molecule, the viability ([10]; 0.08 µM) was 0.757, the viability ([10]; 0.4 µM) was 0.568 and the viability ([10]; 2 µM) was 0.44. It also gave a viability ([10]; 10 µM) of 0.403, a viability ([11]; 0.016 µM) of 1.1 and a viability ([11]; 0.08 µM) of 1.04. The viability ([11]; 0.4 µM) was 0.552, the viability ([11]; 2 µM) was 0.305 and the viability ([11]; 10 µM) was 0.241. The viability ([12]; 0.016 µM) was 0.894, the viability ([12]; 0.08 µM) was 0.848 and the viability ([12]; 0.4 µM) was 0.546. It also gave a viability ([12]; 2 µM) of 0.398, a viability ([12]; 10 µM) of 0.311 and a viability ([13]; 0.016 µM) of 1.02. The viability ([13]; 0.08 µM) was 0.891, the viability ([13]; 0.4 µM) was 0.482 and the viability ([13]; 2 µM) was 0.2. It also gave a viability ([13]; 10 µM) of 0.119, a viability ([14]; 0.016 µM) of 0.983 and a viability ([14]; 0.08 µM) of 0.927. For the same molecule, the viability ([14]; 0.4 µM) was 0.77, the viability ([14]; 2 µM) was 0.52 and the viability ([14]; 10 µM) was 0.405. The viability ([15]; 0.016 µM) was 0.872, the viability ([15]; 0.08 µM) was 0.674 and the viability ([15]; 0.4 µM) was 0.244. For the same molecule, the viability ([15]; 2 µM) was 0.116, the viability ([15]; 10 µM) was 0.0851 and the viability ([16]; 0.016 µM) was 1.09. The viability ([16]; 0.08 µM) was 0.875, the viability ([16]; 0.4 µM) was 0.764 and the viability ([16]; 2 µM) was 0.576. It also gave a viability ([16]; 10 µM) of 0.591, a viability ([19]; 0.016 µM) of 0.93 and a viability ([19]; 0.08 µM) of 0.894. The viability ([19]; 0.4 µM) was 0.73, the viability ([19]; 2 µM) was 0.536 and the viability ([19]; 10 µM) was 0.408. For the same molecule, the viability ([17]; 0.016 µM) was 1.14, the viability ([17]; 0.08 µM) was 1.14 and the viability ([17]; 0.4 µM) was 0.91. The viability ([17]; 2 µM) was 0.654, the viability ([17]; 10 µM) was 0.566 and the viability ([18]; 0.016 µM) was 1.05. It also gave a viability ([18]; 0.08 µM) of 0.942, a viability ([18]; 0.4 µM) of 0.802 and a viability ([18]; 2 µM) of 0.699. For the same molecule, the viability ([18]; 10 µM) was 0.6.

Source: the supplement of paper PMC10733146
